Laboratory results: article PMC11904948, “Peptide‐Drug Conjugate for Therapeutic Reprogramming of Tumor‐Associated Macrophages in Breast Cancer” (Advanced Science, 2025)

Columns and labels:
[1] = test system: mouse bone marrow‐derived macrophages (BMDM); experiment: Phagocytosis of fluorescent E. coli particles by BMDM; format: cell-based; conditions: 10 µM 4 h, washed, 48 h follow-up, versus MACTIDE treated and untreated BMDM
Experimental: We then analyzed if MACTIDE‐V affected the phagocytic activity of BMDM in vitro.
For the E. coli phagocytosis assay, cells were cultured in a 96‐well plate and treated with conjugates as previously described (for 4 h at a 10 µM concentration at 37 °C, then peptide conjugates were removed, washed with media and fresh media was added). The phagocytosis assay was performed at 48 h after treatment removal by removing the media, incubating fluorescent E. coli BioParticles for 2 h, followed by a 1 min incubation with trypan blue (Vybrant Phagocytosis Assay Kit, Invitrogen, Cat# V6694). Plates were read at 480 nm excitation and 520 nm emission using a BioTek Synergy H1 plate reader.

orthotopic 4T1.2 tumors = experiment: MACTIDE-V + anti-PD-1 combination therapy in orthotopic 4T1.2; format: in vivo, Balb/c mice
Experimental: 4T1.2 bearing mice were treated with 9 doses of CtrlPep‐V, MACTIDE‐V (1 mg Kg^−1 in Verteporfin per dose), or PBS i.p. every other day according to the scheme in (A). Anti‐PD‐1 injections started 16 days post‐tumor induction (three injections of 200 µg each). Mice were sacrificed on day 29, their tumor weights were analyzed (B), pulmonary metastases area quantified from H&E‐stained sections (C), and their tumors were analyzed with flow cytometry (D–H).
5×10^5 4T1.2 cells in 50 µL of PBS were injected subcutaneously into 4th mammary fat pad. On day 8, mice were sorted into groups based on tumor volume (≈40 mm^3): PBS, anti‐PD‐1, MACTIDE‐V, MACTIDE‐V+anti‐PD‐1. Mice were treated i.p. every other day with 500 µL of MACTIDE‐V (30 nmol, 1mg kg^−1 Verteporfin) or PBS (10 injections in total). On day 18 post‐injection, MACTIDE‐V+anti‐PD‐1 and anti‐PD‐1 groups received recombiMAb anti‐mouse PD‐1 (Bioxcell, Catalog #CP151), a mouse IgG2a monoclonal antibody with the D265A mutation in the Fc fragment which renders it unable to bind to endogenous Fcγ receptors. Mice received three intraperitoneal injections of 200 µg of anti‐PD‐1 dissolved in 500 µL of PBS. […] Five tumors per group were analyzed by FC as described above. TAM/monocytes were defined as Ly6G^−CD11b^+/F4/80^+ population from the CD45^+ population.
The lungs of all mice were fixed in formalin and embedded in paraffin, and later sectioned and stained with H&E by the histology facility of Vall D´Hebron Research Institute (Barcelona, Spain). Five 10 µm‐sections spaced apart 1 mm were taken from the lungs of each mouse (n = 7 mice per group). Then, the slides were scanned, and the metastatic area divided by the total lung area was calculated for each mouse.

[2] = test system: BMDM obtained from C57/Bl6 (B6) mice; experiment: Flow cytometry and real-time PCR on B6 BMDM; format: cell-based, mouse
Experimental: At the mRNA level, MACTIDE‐V induced a clear increase in Il‐12, Chil3 and Nos2 genes, (Figure 6D, left panel). […] To further investigate whether the effect of MACTIDE‐V was mediated by YAP targeting, we analyzed a set of 7 YAP‐regulated genes (Figure 6D, right panel).
Figure S6. In vitro effect of MACTIDE-V on B6 mice-derived BMDMs. (A) Flow cytometry on BMDMs 48 h after treatment. GeoMean of MHC II in B6 BMDM, n=4 independent experiments. *p≤0.05. (B) Heatmap of the mRNA expression of genes involved in the functional activation of BMDM, measured by real-time PCR 48 h after treatment in B6 BMDM, n=2 independent experiments.

Solubility in water = format: physicochemical; conditions: method not given
Source text: Verteporfin (V), is a photosensitizer and inhibitor of the activation of YAP.^[ [41] ^] […] Verteporfin, in its liposomal formulation Visudyne, is an approved drug for certain ophthalmological indications. In clinical trials for cancer therapy, Verteporfin is mostly used for photodynamic therapy (clinical trial identifiers: NCT03067051, NCT03033225, NCT04590664).

[3] = tumor flow cytometry, five tumors per group

Substance: Vert‐Ahx‐G(CTKSIPPIC)SPGAK‐OH (disulfide) [MACTIDE‐V]
- phagocytosis of fluorescently labeled E. coli [1]: significantly higher phagocytosis
- primary tumor mass (orthotopic 4T1.2 tumors; MACTIDE-V 30 nmol i.p. every other day, anti-PD-1 three i.p. injections of 200 µg, sacrifice day 29): significantly reduced the primary tumor mass
- pulmonary metastases (orthotopic 4T1.2 tumors; metastatic area from H&E sections, n = 7 mice per group, compared with anti-PD-1): superior effect on reducing pulmonary metastases
- B cell infiltration (orthotopic 4T1.2 tumors; tumor flow cytometry): no differences in B cell infiltration
- expression of Granzyme B (GrzB) in CD25^+PD‐1^+ CD8^+ T cells (orthotopic 4T1.2 tumors; tumor flow cytometry): increased
- expression of PD‐1 on CD8^+ T cells (orthotopic 4T1.2 tumors; tumor flow cytometry): reduced
- FOXP3^+PD‐1^+ population among CD4^+ T cells (orthotopic 4T1.2 tumors; tumor flow cytometry, compared to the other experimental conditions): decreasing trend
- CD206^+MHCII^+ population of TAM/monocytes (orthotopic 4T1.2 tumors; [3]): highest increase
- CD206^+MHCII^− population of TAM/monocytes (orthotopic 4T1.2 tumors; [3]): highest decrease
- CD86^+MHCII^+ population of TAM/monocytes (orthotopic 4T1.2 tumors; tumor flow cytometry, n = 5): significantly increased
- CD86^−MHCII^− population of TAM/monocytes (orthotopic 4T1.2 tumors; tumor flow cytometry, n = 5): decreased
- CD4^+ T cells, CD8^+ T cells and NK cells in tumor (orthotopic 4T1.2 tumors; tumor flow cytometry, statistically significant only for NK cells): highest increase
- MHCII expression in B6 BMDM (GeoMean) ([2]; flow cytometry 48 h after treatment, n = 4): increased MHCII expression
- inflammatory gene mRNA expression in B6 BMDM ([2]; real-time PCR 48 h after treatment, n = 2): upregulated the inflammatory genes Il‐1b, Il‐12 and Nos2
- solubilization of Verteporfin by conjugation (Solubility in water): able to solubilize Verteporfin
